These results are taken from patent US7713994B2 (Wyeth LLC, priority 2005, dated 2010).

One assay relates to LoVo. Briefly: Cytotoxicity assay (SRB), LoVo. In kind it is cell-based. The conditions noted are these: LoVo cells, SRB, read-out: In Vitro Cellular Activity IC50 LOVO. The procedure, abridged: (§1)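 Percentage survival is derived from SRB absorbance (540 nm) versus untreated cells. Exposures were 3 days, except 6 days for BT474, at 37 °C and 7% CO2.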
In a further assay the target is T1, cyclin D1/cdk 4 enzyme (Homo sapiens, UniProt P11802).
T1 construct: made in house; host or cells: Sf9 insect cells, recombinant baculovirus
Briefly: CDK4 ELISA kinase assay (phospho-Rb ser 795 detection). Format: biochemical. In outline:
(§2)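 Partially purified Sf9-expressed cyclin D1/CDK4, cyclin E/CDK2 or cyclin B/CDK1 phosphorylated plate-bound GST-Rb C-terminal fragment with 200 μM ATP at 30° C for 1 h.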

In the next assay the test system is BT474. Briefly: Cytotoxicity assay (SRB), BT474. Format: cell-based. The procedure, abridged:
as §1

The next assay addresses T2, cyclin B/CDK1 enzyme (Homo sapiens, UniProt P06493).
T2 construct: purchased New England BioLabs; host or cells: Sf9 insect cells, recombinant baculovirus
Briefly: CDK1 ELISA kinase assay (phospho-Rb ser 795 detection). Format: biochemical. The procedure, abridged: as §2
For orientation: ELISA stands for enzyme-linked immunosorbent assay.

The next assay deals with T3, cyclin E/CDK2 enzyme (Homo sapiens, UniProt P24941).
T3 construct: made in house; host or cells: Sf9 insect cells, recombinant baculovirus
Briefly: CDK2 ELISA kinase assay (phospho-Rb ser 795 detection). Format: biochemical. In outline: as §2

Another assay deals with MCF-7. Briefly: Cytotoxicity assay (SRB), MCF-7. Format: cell-based. As to conditions: MCF-7 cells, SRB, read-out: In Vitro Cellular Activity IC50 MCF-7. In outline: as §1
A further assay has as its system HCT-116. In words: Cytotoxicity assay (SRB), HCT-116. The conditions noted are these: HCT116 cells, SRB, read-out: In Vitro Cellular Activity IC50 HCT116. In kind it is cell-based. In outline:
as §1

Where [1] appears, read: Homo sapiens, LoVo, 72 h, 3 days.
[2] abbreviates: In Vitro Enzyme Assay, cyclin D1/cdk 4, read-out: CDK4 IC50.
[3] abbreviates: Homo sapiens, BT-474, 144 h, BT474 cells, 6 days, SRB; read-out: In Vitro Cellular Activity IC50 BT474.
The mark [4] stands for this setting: In Vitro Enzyme Assay, cyclin B/CDK1, read-out: CDK1 IC50.
Where [5] appears, read: In Vitro Enzyme Assay, cyclin E/CDK2, read-out: CDK2 IC50.
Setting [6] is: Homo sapiens, MCF7, 72 h, 3 days.
Where [7] appears, read: Homo sapiens, HCT-116, 72 h, 3 days.
Setting [8] is: Homo sapiens, LoVo, 72 h, three days.
Setting [9] is: In Vitro Enzyme Assays, 200 μM ATP, read-out: CDK4 IC50.
[10] abbreviates: Homo sapiens, BT-474, 144 h, BT474 cells, SRB, 6 days; read-out: In Vitro Cellular Activity IC50 BT474.
Setting [11] is: In Vitro Enzyme Assays, read-out: CDK1 IC50.
Where [12] appears, read: In Vitro Enzyme Assays, read-out: CDK2 IC50.
Where [13] appears, read: Homo sapiens, MCF7, 72 h, three days.
Where [14] appears, read: Homo sapiens, HCT-116, 72 h, three days.

Structures are written as SMILES. pIC50: −log10 of the molar value. Read-outs that look alike come from different tables or passages of the source. Where only a bound is given, the exact number is not on record here.

T1 sequence (P11802 whole entry, species assumed): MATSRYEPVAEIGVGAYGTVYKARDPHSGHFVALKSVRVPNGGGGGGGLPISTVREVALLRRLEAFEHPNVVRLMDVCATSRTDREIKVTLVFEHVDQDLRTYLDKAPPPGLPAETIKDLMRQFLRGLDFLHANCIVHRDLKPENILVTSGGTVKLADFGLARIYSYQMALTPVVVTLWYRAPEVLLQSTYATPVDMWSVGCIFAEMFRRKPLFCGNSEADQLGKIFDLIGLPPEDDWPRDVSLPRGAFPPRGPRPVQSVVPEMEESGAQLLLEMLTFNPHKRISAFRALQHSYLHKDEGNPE
T1 sequence (P24385 whole entry partner, species assumed): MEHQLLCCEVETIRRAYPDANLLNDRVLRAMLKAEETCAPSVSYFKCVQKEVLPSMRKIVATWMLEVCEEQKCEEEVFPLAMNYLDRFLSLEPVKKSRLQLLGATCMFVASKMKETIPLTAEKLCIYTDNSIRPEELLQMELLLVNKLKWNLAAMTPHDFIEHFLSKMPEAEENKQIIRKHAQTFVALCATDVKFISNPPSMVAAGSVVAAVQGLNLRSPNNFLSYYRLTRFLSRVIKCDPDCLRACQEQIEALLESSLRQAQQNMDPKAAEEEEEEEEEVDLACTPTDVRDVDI
T2 sequence (P06493 whole entry): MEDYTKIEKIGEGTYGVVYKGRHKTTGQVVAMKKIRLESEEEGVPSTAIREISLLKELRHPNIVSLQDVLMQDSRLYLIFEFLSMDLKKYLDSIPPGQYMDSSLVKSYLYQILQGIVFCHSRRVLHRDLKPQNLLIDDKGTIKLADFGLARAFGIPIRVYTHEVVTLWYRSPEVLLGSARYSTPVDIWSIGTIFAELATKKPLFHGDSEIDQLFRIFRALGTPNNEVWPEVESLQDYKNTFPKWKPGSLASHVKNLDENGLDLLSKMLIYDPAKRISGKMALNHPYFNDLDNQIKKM
T2 sequence (P14635 whole entry partner): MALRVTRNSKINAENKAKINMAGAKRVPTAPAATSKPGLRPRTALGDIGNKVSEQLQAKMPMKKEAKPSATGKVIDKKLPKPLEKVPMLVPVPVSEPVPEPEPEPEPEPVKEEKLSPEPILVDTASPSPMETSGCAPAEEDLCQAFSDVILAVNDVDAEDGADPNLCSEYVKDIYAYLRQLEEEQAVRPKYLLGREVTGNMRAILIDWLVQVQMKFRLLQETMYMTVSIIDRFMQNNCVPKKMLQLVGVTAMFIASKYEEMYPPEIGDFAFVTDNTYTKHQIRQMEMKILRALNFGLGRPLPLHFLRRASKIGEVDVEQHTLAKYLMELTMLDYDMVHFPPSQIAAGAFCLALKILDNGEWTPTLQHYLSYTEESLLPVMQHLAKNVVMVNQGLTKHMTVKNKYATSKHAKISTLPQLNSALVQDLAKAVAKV

For the compound `COc1ccc(CNC=C2C(=O)NC(=O)c3ccc(C=Cc4ccccn4)cc32)cc1O` [Example 735, 4-[(3-Hydroxy-4-methoxy-benzylamino)-methylene]-6-(2-pyridin-2-yl-vinyl)-4H-isoquinoline-1,3-dione], the pIC50 with LoVo (setting [1]) was 4.94; at cyclin D1/cdk 4 enzyme (setting [2]), 6.85; with BT474 (setting [3]), 4.70; on cyclin B/CDK1 enzyme (setting [4]), less than 4.30; at cyclin E/CDK2 enzyme (setting [5]), less than 4.30; in the assay on MCF-7 (setting [6]), 4.66. Besides, the pIC50 in the assay on HCT-116 (setting [7]) is 4.74.
Regarding `CC(C)(C)c1ccc2c(c1)/C(=C/NCc1ccn(-c3ccoc3)c(=O)c1)C(=O)NC2=O` [Example 533, (4Z)-6-tert-Butyl-4-[({[1-(3-furyl)-2-oxo-1,2-dihydropyridin-4-yl]methyl}amino)methylene]isoquinoline-1,3(2H,4H)-dione], the negative logarithm of the IC50 (pIC50) was 6.14 in the assay on LoVo (setting [1]); 7.52 on cyclin D1/cdk 4 enzyme (setting [2]); 6.31 in the assay with BT474 (setting [3]); 5.19 at cyclin B/CDK1 enzyme (setting [4]); 5.46 on cyclin E/CDK2 enzyme (setting [5]); 5.82 in the assay on MCF-7 (setting [6]). Further, the pIC50 in the assay with HCT-116 (setting [7]) is 5.82.
`O=C1NC(=O)c2ccc(Br)cc2/C1=C/Nc1ccc2c(c1)CCN2` [Example 214, (4Z)-6-Bromo-4-[(2,3-dihydro-1H-indol-5-ylamino)methylene]isoquinoline-1,3(2H,4H)-dione]: the pIC50 with LoVo (setting [8]) was less than 4.30; at cyclin D1/cdk 4 enzyme (setting [9]) it was 4.75; with BT474 (setting [10]), 5.17; at cyclin B/CDK1 enzyme (setting [11]), less than 4.30; on cyclin E/CDK2 enzyme (setting [12]), 5.20; in the assay on MCF-7 (setting [13]), 4.85. Besides, in the assay with HCT-116 (setting [14]), the pIC50 is 4.41.
Consider `C[C@@H]1CN(c2ccc(N/C=C3\C(=O)NC(=O)c4ccc(-c5ccoc5)cc43)cc2)C[C@H](C)N1` [Example 207, (4Z)-4-({[4-(3,5-Dimethylpiperazin-1-yl)phenyl]amino}methylene)-6-(3-furyl)iso-quinoline-1,3(2H,4H)-dione], for which the negative logarithm of the IC50 (pIC50) was 5.66 in the assay on LoVo (setting [8]); 6.70 on cyclin D1/cdk 4 enzyme (setting [9]); 6.10 in the assay on BT474 (setting [10]); less than 4.30 at cyclin B/CDK1 enzyme (setting [11]); less than 4.30 at cyclin E/CDK2 enzyme (setting [12]); 6.16 in the assay with MCF-7 (setting [13]). Also, the pIC50 with HCT-116 (setting [14]) was 5.96.
As to `O=C1NC(=O)c2ccc(I)cc2/C1=C/NCc1ccc(I)c(O)c1` [Example 504, 4-[(3-Hydroxy-4-iodo-benzylamino)-methylene]-6-iodo-4H-isoquinoline-1,3-dione], the negative-log IC50 (pIC50) is 5.37 in the assay on LoVo (setting [1]); 8.10 at cyclin D1/cdk 4 enzyme (setting [2]); 6.00 in the assay on BT474 (setting [3]); less than 4.30 at cyclin B/CDK1 enzyme (setting [4]); less than 4.30 at cyclin E/CDK2 enzyme (setting [5]); 5.82 in the assay on MCF-7 (setting [6]). Moreover, in the assay with HCT-116 (setting [7]), the pIC50 was 5.41.
Take `O=C1NC(=O)c2ccc(I)cc2/C1=C/Nc1ccc(N2CCN(CC3CC3)CC2)cc1` [Example 391, (4Z)-4-[({4-[4-(Cyclopropylmethyl)piperazin-1-yl]phenyl}amino)methylene]-6-iodoisoquinoline-1,3(2H,4H)-dione]: the pIC50 in the assay on LoVo (setting [1]) is 5.14; at cyclin D1/cdk 4 enzyme (setting [9]), 6.30; in the assay on BT474 (setting [3]), 5.52; on cyclin B/CDK1 enzyme (setting [11]), less than 4.30; at cyclin E/CDK2 enzyme (setting [12]), less than 4.30; in the assay on MCF-7 (setting [6]), 5.59. Moreover, in the assay on HCT-116 (setting [7]), the pIC50 was 5.62.
Consider `C=CC(=O)Nc1ccc(CN/C=C2\C(=O)NC(=O)c3ccc(Br)cc32)cc1O` [Example 301, N-[4-({[(Z)-(6-Bromo-1,3-dioxo-2,3-dihydroisoquinolin-4(1H)-ylidene)methyl]amino}methyl)-2-hydroxyphenyl]acrylamide], for which the pIC50 with LoVo (setting [8]) was 6.77; on cyclin D1/cdk 4 enzyme (setting [9]), 7.05; in the assay with BT474 (setting [10]) it was 6.85; at cyclin B/CDK1 enzyme (setting [11]) it was less than 4.30; on cyclin E/CDK2 enzyme (setting [12]) it was 5.08; in the assay on MCF-7 (setting [13]) it was 6.70. Also, the negative logarithm of the IC50 (pIC50) in the assay with HCT-116 (setting [14]) was 6.77.
As for `CN1CCN(c2ccc(N/C=C3\C(=O)NC(=O)c4ccc(-c5ccsc5)cc43)cc2)CC1` [Example 108, (4Z)-4-({[4-(4-Methylpiperazin-1-yl)phenyl]amino}methylene)-6-thien-3-ylisoquinoline-1,3(2H,4H)-dione], the negative logarithm of the IC50 (pIC50) in the assay on LoVo (three days) was 5.66; on cyclin D1/cdk 4 enzyme (setting [9]), 6.92; in the assay on BT474 (BT474 cells, SRB, 6 days; read-out: In Vitro Cellular Activity IC50 BT474) it was 5.59; on cyclin B/CDK1 enzyme (setting [11]), less than 4.30; at cyclin E/CDK2 enzyme (setting [12]), less than 4.30; in the assay on MCF-7 (three days), 5.60. The pIC50 in the assay with HCT-116 (three days) was 5.82.
For the compound `CC(=O)Nc1ccc(CN/C=C2\C(=O)NC(=O)c3ccc(-c4ccsc4)cc32)cc1O` [Example 145, N-[4-({[(Z)-(1,3-Dioxo-6-thien-3-yl-2,3-dihydroisoquinolin-4(1H)-′ylidene)methyl]amino}methyl)-2-hydroxyphenyl]acetamide], the pIC50 in the assay with LoVo (setting [8]) was 4.80; on cyclin D1/cdk 4 enzyme (setting [9]), 8.40; with BT474 (setting [10]), less than 4.30; at cyclin B/CDK1 enzyme (setting [11]), 4.58; at cyclin E/CDK2 enzyme (setting [12]) it was 5.21; in the assay on MCF-7 (setting [13]), less than 4.30. Moreover, the pIC50 in the assay on HCT-116 (setting [14]) is 4.49.
On to `O=C1NC(=O)c2ccc(Br)cc2/C1=C/Nc1ccc(-n2ccnc2)cc1` [Example 260, (4Z)-6-Bromo-4-({[4-(1H-imidazol-1-yl)phenyl]amino}methylene)isoquinoline-1,3(2H,4H)-dione], for which the pIC50 is less than 4.30 in the assay with LoVo (setting [8]); 4.65 on cyclin D1/cdk 4 enzyme (setting [9]); less than 4.30 in the assay on BT474 (setting [10]); less than 4.30 on cyclin B/CDK1 enzyme (setting [11]); 4.83 on cyclin E/CDK2 enzyme (setting [12]); less than 4.30 with MCF-7 (setting [13]). Moreover, the pIC50 with HCT-116 (setting [14]) was 5.27.
As for `COc1ccccc1-c1ccc2c(c1)C(=CNCc1ccc(O)c(O)c1)C(=O)NC2=O` [Example 766, 4-[(3,4-Dihydroxy-benzylamino)-methylene]-6-(2-methoxy-phenyl)-4H-isoquinoline-1,3-dione], the pIC50 was 4.49 in the assay on LoVo (setting [1]); 5.89 on cyclin D1/cdk 4 enzyme (setting [2]); 4.47 with BT474 (setting [3]); 4.36 on cyclin B/CDK1 enzyme (setting [4]); 4.84 at cyclin E/CDK2 enzyme (setting [5]); 4.66 with MCF-7 (setting [6]). Further, in the assay with HCT-116 (setting [7]), the pIC50 was 4.67.
For `O=C1NC(=O)c2ccc(C3CCCC3)cc2/C1=C/NCc1ccc(-c2ccoc2)c(O)c1` [Example 536, 6-Cyclopentyl-4-[(4-furan-3-yl-3-hydroxy-benzylamino)-methylene]-4H-isoquinoline-1,3-dione], the negative logarithm of the IC50 (pIC50) in the assay with LoVo (setting [1]) is 6.29; on cyclin D1/cdk 4 enzyme (setting [2]) it was 7.70; in the assay on BT474 (setting [3]), 6.37; on cyclin B/CDK1 enzyme (setting [4]) it was less than 4.30; on cyclin E/CDK2 enzyme (setting [5]), 5.51; in the assay on MCF-7 (setting [6]) it was 5.68. Besides, the negative logarithm of the IC50 (pIC50) in the assay with HCT-116 (setting [7]) was 5.96.
On to `O=C1NC(=O)c2ccc(I)cc2/C1=C/Nc1ccc(CN2CCC[C@H]2CO)cc1` [Example 376, L-4-{[4-(2-Hydroxymethyl-pyrrolidin-1-ylmethyl)-phenylamino]-methylene}-6-iodo-4H-isoquinoline-1,3-dione], for which the pIC50 in the assay with LoVo (setting [8]) was 5.59; on cyclin D1/cdk 4 enzyme (setting [9]), 6.37; in the assay on BT474 (setting [10]) it was 6.43; at cyclin B/CDK1 enzyme (setting [11]), less than 4.30; at cyclin E/CDK2 enzyme (setting [12]) it was less than 4.30; in the assay with MCF-7 (setting [13]) it was 6.26. Moreover, the pIC50 with HCT-116 (setting [14]) is 5.44.
Consider `Cn1ccc(CN/C=C2\C(=O)NC(=O)c3ccc(I)cc32)cc1=O` [Example 453, (4Z)-6-Iodo-4-({[(1-methyl-2-oxo-1,2-dihydropyridin-4-yl)methyl]amino}methylene)isoquinoline-1,3(2H,4H)-dione], for which the pIC50 was 5.48 in the assay on LoVo (setting [1]); 7.22 at cyclin D1/cdk 4 enzyme (setting [9]); 5.40 in the assay on BT474 (setting [3]); 4.90 on cyclin B/CDK1 enzyme (setting [11]); 6.00 on cyclin E/CDK2 enzyme (setting [12]); 5.37 in the assay with MCF-7 (setting [6]). Moreover, the pIC50 in the assay on HCT-116 (setting [7]) is 5.43.
Regarding `CCOc1ccc(CN/C=C2\C(=O)NC(=O)c3ccc(Br)cc32)cc1O` [Example 166, (4Z)-6-Bromo-4-{[(4-ethoxy-3-hydroxybenzyl)amino]methylene}isoquinoline-1,3(2H,4H)-dione], the negative logarithm of the IC50 (pIC50) with LoVo (setting [8]) was 5.66; at cyclin D1/cdk 4 enzyme (setting [9]), 7.52; in the assay on BT474 (setting [10]) it was 5.85; at cyclin B/CDK1 enzyme (setting [11]) it was less than 4.30; at cyclin E/CDK2 enzyme (setting [12]), 4.34; in the assay with MCF-7 (setting [13]), 4.72. Moreover, in the assay with HCT-116 (setting [14]), the negative-log IC50 (pIC50) was 5.89.

As usually defined, the pIC50 is the negative decadic logarithm of the IC50, by convention in mol/L.
